The values that follow come from ChEMBL document CHEMBL3886432, “Purinylpyridinylamino-2,4-difluorophenyl sulfonamide derivative, pharmaceutically acceptable salt thereof, preparation method thereof, and pharmaceutical composition with inhibitory activity against Raf kinase, containing same as active ingredient” (2015).

The experiment addresses Serine/threonine-protein kinase B-raf (Homo sapiens, UniProt P15056). Nature of the experiment: The solutions in the tube were collected on the bottom via centrifugation and were reacted at 30° C. for 30 minutes.

Sequence of Serine/threonine-protein kinase B-raf (P15056 whole entry): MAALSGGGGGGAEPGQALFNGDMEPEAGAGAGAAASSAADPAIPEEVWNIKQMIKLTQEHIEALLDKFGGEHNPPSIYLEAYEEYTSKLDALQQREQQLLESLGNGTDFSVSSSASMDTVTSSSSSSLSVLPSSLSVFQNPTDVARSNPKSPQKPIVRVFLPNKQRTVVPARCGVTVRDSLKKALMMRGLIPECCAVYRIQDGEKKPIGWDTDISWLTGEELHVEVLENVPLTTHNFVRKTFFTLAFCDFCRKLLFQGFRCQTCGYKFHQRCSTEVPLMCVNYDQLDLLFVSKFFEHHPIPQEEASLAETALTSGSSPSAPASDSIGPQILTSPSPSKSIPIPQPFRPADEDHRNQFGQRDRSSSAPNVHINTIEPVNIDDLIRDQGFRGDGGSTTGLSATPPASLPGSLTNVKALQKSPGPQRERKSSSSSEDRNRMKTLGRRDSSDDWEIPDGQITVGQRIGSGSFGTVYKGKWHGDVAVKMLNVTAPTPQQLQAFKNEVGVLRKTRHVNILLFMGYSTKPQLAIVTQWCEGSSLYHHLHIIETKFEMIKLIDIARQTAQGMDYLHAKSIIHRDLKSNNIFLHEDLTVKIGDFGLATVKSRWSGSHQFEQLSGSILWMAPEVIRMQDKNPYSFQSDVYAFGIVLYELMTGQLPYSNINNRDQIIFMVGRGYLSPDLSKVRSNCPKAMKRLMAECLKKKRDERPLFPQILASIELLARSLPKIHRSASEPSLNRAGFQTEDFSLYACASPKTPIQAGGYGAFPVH

What is called IC50 is the point on the concentration scale where inhibition reaches its midpoint. Read a high IC50 as lower potency. `O=S(=O)(Nc1ccc(F)c(Nc2ncccc2-c2ncnc3[nH]cnc23)c1F)c1ccc(Cl)s1` yielded an IC50 of 20 nM.
